Data on six molecules can be found in patent publication US20240293551A1, “USE OF ST-TYPE LIPID COMPOUNDS IN PREPARATION OF NUCLEIC ACID DELIVERY REAGENT AND RELATED PRODUCT” (INSTITUTE OF BASIC MEDICAL SCIENCES CHINESE ACADEMY OF …, priority 2021, published 2024).

This assay relates to PGY-sRNA-26. The assay is described as follows: In vivo delivery study of lipid-nucleic acid mixture (oral gavage, RT-qPCR of PGY-sRNA-26 in tissues). Set-up: species or system mouse. To be noted: C57BL/6 mice, gavage, 100 μg lipid: 10 nmol PGY-sRNA-26, 12 hours; for delivery efficacy over each tissue and blood tested (broad-spectrum delivery): all tissues and blood tested; for oral delivery of single-stranded sRNA nucleic acids into mouse intestinal tissue: intestine. As to the method:
10 nmol of small RNA (as shown in Table 2) was dissolved in 400 μl of DEPC-treated water in a glass tube, 10 μl of the corresponding lipid stock solution was added such that the lipid mass in the system was 100 μg. The mixture was mixed thoroughly, heated in a 90° C. water bath for 15 minutes, and then cooled naturally to obtain the lipid nucleic acid mixture of lipid and small RNA.
C57BL/6 male mice, approximately 6 weeks old, weighing 20-24 g, were obtained from Beijing Vital River Laboratory Animal Technology Co., Ltd. The mice were housed in the SPF-grade animal facility at the Animal Center of the Institute of Basic Medical Sciences, Chinese Academy of Medical Sciences. The mice were fasted for 12 hours before gavage administration.
The resultant lipid nucleic acid mixture was orally administered to each mouse at a dose of 100 μg lipid: 10 nmol single-stranded 3′-methylated small RNA PGY-sRNA-26.
• 1) Blank group (n=4): mice were administered with 500 μl saline by gavage, this group served as a blank control; • 2) Free uptake group (n=4): mice were directly administered with small RNA PGY-sRNA-26 solution (10 nmol/mouse, 500 μl) by gavage, this group served as a negative control; • 3) Lipid-treated group (n=4): mice were administered with 500 μl lipid nucleic acid mixture prepared in step 2 by gavage.
After 12 hours of gavage administration, 500 μl blood from the eyeball of each mouse was sampled, added to 1.5 ml Trizol Reagent LS (purchased from Invitrogen), thoroughly mixed for lysis. 3 ml of Trizol Reagent LSwas added to tissue samples and homogenized for complete lysis, wherein the sampled tissues include heart, liver, spleen, lung, kidney, stomach, intestine, brain, blood, femur. RNA was extracted from 1 ml of the blood or the tissue lysate following the steps below: • Centrifuge at 4° C., 12,000 rpm for 5 min, discard the precipitate, transfer Trizol to a new centrifuge tube; • Add chloroform at 200 μL chloroform/mL Trizol, shake well, stand at room temperature for 5 min; • Centrifuge at 4° C., 12,000 rpm for 15 min; • Take the upper aqueous phase to another centrifuge tube, add isopropanol at 0.4 mL isopropanol/mL Trizol, mix well, and stand at low temperature for 10-20 min; • Centrifuge at 4° C., 12,000 rpm for 15 min, discard the supernatant, RNA precipitated at the bottom of the tube; • Add 1 mL of 75% ethanol, gently shake the centrifuge tube, suspend the precipitate; • Centrifuge at 4° C., 12,000 rpm for 15 min, discard the supernatant, add 1 mL of 75% ethanol, gently shake the centrifuge tube, suspend the precipitate; • Centrifuge at 4° C., 12,000 rpm for 15 min, discard the supernatant, air-dry at room temperature, dissolve RNA samples in 50 μL RNase-free H2O, measure OD value to quantify RNA concentration. 3.3 Reverse Transcription of sRNA to cDNA:
The reverse transcription system is as follows: Template RNA (200 ng/μL) 10 μL, 10×RT Buffer 2.0 μL, 25×dNTP Mix (100 mM) 0.8 μL, U6 RT stem-loop primer (10 μM) 2.0 μL, PGY-sRNA-26 RT stem-loop primer (10 μM) 2.0 μL, MultiScribe™ Reverse Transcriptase (50 U/μL) 1.0 μL, RNAse Inhibitor (40 U/μL) 1.0 μL, nuclease-free H2O 1.2 μL. After transient centrifugation, the reverse transcription system was placed in a PCR machine with the following reaction conditions: (1) 25° C., 10 min; (2) 37° C., 120 min; (3) 85° C., 5 min; (4) 4° C., stop reaction. After the reaction, add 20 μL RNAse-free ddH2O, adjust the final volume to 40 μL. The stem-loop primers used in this reverse transcription process were synthesized by Beijing Tianyi Huiyuan Biotechnology Co., Ltd. (U6 was used as a standard reference gene to calculate its relative expression, because U6 RT primer was used as a reference gene in relative quantification of RT-qPCR reactions for small RNA): […]
Background: In qPCR the cycle at which signal appears reflects the starting amount.

As to `CC(C)[C@H](C)[C@@H](O)[C@H](O)[C@@H](C)[C@H]1CC[C@H]2[C@@H]3COC(=O)[C@H]4C[C@H](O)[C@H](O)C[C@]4(C)[C@H]3CC[C@]12C` [Lipid 508], the “delivery efficacy over each tissue and blood tested (broad-spectrum delivery)” value was “exhibited the best delivery efficacy”; the “oral delivery of single-stranded sRNA nucleic acids into mouse blood” value is recorded as “can effectively orally deliver”; the “oral delivery of single-stranded sRNA nucleic acids into mouse brain tissue” value was “can effectively orally deliver”; the “oral delivery of single-stranded sRNA nucleic acids into mouse heart tissue” value was “can effectively orally deliver”. The “oral delivery of single-stranded sRNA nucleic acids into mouse intestinal tissue” value is given as “can effectively orally deliver”, the “oral delivery of single-stranded sRNA nucleic acids into mouse kidney tissue” value was “can effectively orally deliver”, the “oral delivery of single-stranded sRNA nucleic acids into mouse liver tissue” value is on record as “can effectively orally deliver” and the “oral delivery of single-stranded sRNA nucleic acids into mouse lung tissue” value was “can effectively orally deliver”. The “oral delivery of single-stranded sRNA nucleic acids into mouse spleen tissue” value is given as “can effectively orally deliver” and the “oral delivery of single-stranded sRNA nucleic acids into mouse stomach tissue” value is “can effectively orally deliver”.
Turning to `C[C@]1(O)CC[C@H]2[C@@H]3CCC4=CC(=O)CC[C@]4(C)[C@@]3(F)[C@@H](O)C[C@@]21C` [Lipid 532], the “delivery efficacy over each tissue and blood tested (broad-spectrum delivery)” value was “exhibited the best delivery efficacy”; the “oral delivery of single-stranded sRNA nucleic acids into mouse blood” value is given as “can effectively orally deliver”; the “oral delivery of single-stranded sRNA nucleic acids into mouse femur” value is “can effectively orally deliver”; the “oral delivery of single-stranded sRNA nucleic acids into mouse heart tissue” value is recorded as “can effectively orally deliver”. Besides, the “oral delivery of single-stranded sRNA nucleic acids into mouse intestinal tissue” value is listed as “can effectively orally deliver”, the “oral delivery of single-stranded sRNA nucleic acids into mouse kidney tissue” value is recorded as “can effectively orally deliver”, the “oral delivery of single-stranded sRNA nucleic acids into mouse liver tissue” value is listed as “can effectively orally deliver” and the “oral delivery of single-stranded sRNA nucleic acids into mouse lung tissue” value is “can effectively orally deliver”. Also, the “oral delivery of single-stranded sRNA nucleic acids into mouse spleen tissue” value is “can effectively orally deliver” and the “oral delivery of single-stranded sRNA nucleic acids into mouse stomach tissue” value was “can effectively orally deliver”.
For the molecule `C[C@]12CCC(=O)C=C1CC[C@H]1[C@@H]3CC[C@](O)(C(=O)CO)[C@@]3(C)C[C@H](O)[C@@]12F` [Lipid 534], the “delivery efficacy over each tissue and blood tested (broad-spectrum delivery)” value was “exhibited the best delivery efficacy”; the “oral delivery of single-stranded sRNA nucleic acids into mouse blood” value is reported as “can effectively orally deliver”; the “oral delivery of single-stranded sRNA nucleic acids into mouse brain tissue” value was “can effectively orally deliver”; the “oral delivery of single-stranded sRNA nucleic acids into mouse femur” value is “can effectively orally deliver”. The “oral delivery of single-stranded sRNA nucleic acids into mouse heart tissue” value is listed as “can effectively orally deliver”, the “oral delivery of single-stranded sRNA nucleic acids into mouse intestinal tissue” value was “can effectively orally deliver”, the “oral delivery of single-stranded sRNA nucleic acids into mouse kidney tissue” value is “can effectively orally deliver” and the “oral delivery of single-stranded sRNA nucleic acids into mouse liver tissue” value is “can effectively orally deliver”. For the same molecule, the “oral delivery of single-stranded sRNA nucleic acids into mouse lung tissue” value is given as “can effectively orally deliver”, the “oral delivery of single-stranded sRNA nucleic acids into mouse spleen tissue” value is listed as “can effectively orally deliver” and the “oral delivery of single-stranded sRNA nucleic acids into mouse stomach tissue” value is “can effectively orally deliver”.
On to `CC(C)CC[C@@H](O)[C@](C)(O)[C@H]1CC[C@@]2(O)C3=CC(=O)[C@@H]4C[C@@H](O)[C@@H](O)C[C@]4(C)[C@H]3CC[C@]12C` [Lipid 538], for which the “delivery efficacy over each tissue and blood tested (broad-spectrum delivery)” value is “exhibited the best delivery efficacy”; the “oral delivery of single-stranded sRNA nucleic acids into mouse blood” value is given as “can effectively orally deliver”; the “oral delivery of single-stranded sRNA nucleic acids into mouse brain tissue” value was “can effectively orally deliver”; the “oral delivery of single-stranded sRNA nucleic acids into mouse femur” value is listed as “can effectively orally deliver”. For the same molecule, the “oral delivery of single-stranded sRNA nucleic acids into mouse heart tissue” value is reported as “can effectively orally deliver”, the “oral delivery of single-stranded sRNA nucleic acids into mouse intestinal tissue” value is reported as “can effectively orally deliver”, the “oral delivery of single-stranded sRNA nucleic acids into mouse kidney tissue” value was “can effectively orally deliver” and the “oral delivery of single-stranded sRNA nucleic acids into mouse liver tissue” value is listed as “can effectively orally deliver”. Moreover, the “oral delivery of single-stranded sRNA nucleic acids into mouse lung tissue” value is “can effectively orally deliver”, the “oral delivery of single-stranded sRNA nucleic acids into mouse spleen tissue” value is “can effectively orally deliver” and the “oral delivery of single-stranded sRNA nucleic acids into mouse stomach tissue” value is listed as “can effectively orally deliver”.
In the case of `C[C@]12CCC(=O)C[C@@H]1CC[C@@H]1[C@@H]2CC[C@@]2(C)[C@H]1CC[C@]2(C)O` [Lipid 539], the “delivery efficacy over each tissue and blood tested (broad-spectrum delivery)” value was “exhibited the best delivery efficacy”; the “oral delivery of single-stranded sRNA nucleic acids into mouse blood” value is given as “can effectively orally deliver”; the “oral delivery of single-stranded sRNA nucleic acids into mouse brain tissue” value is listed as “can effectively orally deliver”; the “oral delivery of single-stranded sRNA nucleic acids into mouse femur” value is recorded as “can effectively orally deliver”. The “oral delivery of single-stranded sRNA nucleic acids into mouse heart tissue” value was “can effectively orally deliver”, the “oral delivery of single-stranded sRNA nucleic acids into mouse intestinal tissue” value is on record as “can effectively orally deliver”, the “oral delivery of single-stranded sRNA nucleic acids into mouse kidney tissue” value is recorded as “can effectively orally deliver” and the “oral delivery of single-stranded sRNA nucleic acids into mouse liver tissue” value is on record as “can effectively orally deliver”. The “oral delivery of single-stranded sRNA nucleic acids into mouse lung tissue” value is recorded as “can effectively orally deliver”, the “oral delivery of single-stranded sRNA nucleic acids into mouse spleen tissue” value was “can effectively orally deliver” and the “oral delivery of single-stranded sRNA nucleic acids into mouse stomach tissue” value is listed as “can effectively orally deliver”.
Regarding `C=C1/C(=C\C=C2/CCC[C@]3(C)[C@@H]([C@H](C)OCCC(C)(C)O)CC[C@@H]23)C[C@@H](O)C[C@@H]1O` [Lipid 540], the “delivery efficacy over each tissue and blood tested (broad-spectrum delivery)” value was “exhibited the best delivery efficacy”; the “oral delivery of single-stranded sRNA nucleic acids into mouse blood” value is recorded as “can effectively orally deliver”; the “oral delivery of single-stranded sRNA nucleic acids into mouse brain tissue” value was “can effectively orally deliver”; the “oral delivery of single-stranded sRNA nucleic acids into mouse femur” value was “can effectively orally deliver”. Also, the “oral delivery of single-stranded sRNA nucleic acids into mouse heart tissue” value is “can effectively orally deliver”, the “oral delivery of single-stranded sRNA nucleic acids into mouse intestinal tissue” value is “can effectively orally deliver”, the “oral delivery of single-stranded sRNA nucleic acids into mouse kidney tissue” value is “can effectively orally deliver” and the “oral delivery of single-stranded sRNA nucleic acids into mouse liver tissue” value is recorded as “can effectively orally deliver”. Besides, the “oral delivery of single-stranded sRNA nucleic acids into mouse lung tissue” value is “can effectively orally deliver”, the “oral delivery of single-stranded sRNA nucleic acids into mouse spleen tissue” value is on record as “can effectively orally deliver” and the “oral delivery of single-stranded sRNA nucleic acids into mouse stomach tissue” value is reported as “can effectively orally deliver”.
